Assay results from US8048918B2, “Treatment of hyperproliferative diseases” (Vampex Limited, priority 2000, dated 2011).
Where no end group is shown, it is not given here.

What was measured:
[1] = system: normal human epidermal keratinocytes; experiment: differentiation assay (K1/K10) on normal human epidermal keratinocytes; type: cell-based; details: for differentiation: Carbenoxolone 6 μM, Disulfiram 15 μM or Citral 10 μM, 1.2 mM calcium, FIG. 11
Protocol: (§1) Primary cultures were seeded at 3500 cells/cm^2 in K-SFM 25 cm^2 tissue culture flasks. The medium was changed (5 ml per flask) the day after seeding and every other day thereafter. At 70-80% confluence the cells were subcultured by seeding 3500 cells/cm^2 in new 25 cm^2 flasks. On the day that the subcultures reached confluence the medium was switched to medium containing the experimental treatments.
(§2) The cells were cultured for 4 days, replacing the experimental medium every other day, before harvesting the cells.
RNA extraction is carried out according to the manufacturers instructions using the RNeasy kit (QIAGEN). 20 μg of RNA for each treatment was separated on a 1.2% agarose (1.8% formaldehyde) gel and transferred onto a nylon membrane (Zeta probe GT membranes, BioRad) by capillary transfer. The RNA is fixed to the membrane by UV crosslinking. DNA probes for the differentiation markers K1 and K10(50 ng) are labelled with [α-^32P] dCTP using the Prime-It RmT Primer labeling kit (Stratagene) following the manufacturer's instructions. Unincorporated nucleotides are removed by elution through a Microspin G25 column (Pharmacia Biotech). The blots are wetted in 0.25M sodium phosphate (pH 7.2)/7% SDS for 30 minutes at 65° C. Fresh hybridisation solution is added along with the radiolabelled probe and the blot is hybridised overnight at 65° C.
The blot is washed for 2×5 minutes in 0.25M sodium phosphate (pH 7.2), 7% SDS and then for 2×5 minutes in 20 mM sodium phosphate (pH 7.2), 5% SDS at 65° C. The wash steps are repeated until a clear distinction can be made between the signal and non-specific background. The blot is exposed to x-ray film for 24 hours before developing.
Synthesis of mRNA for the K1 and K10 keratin (markers for commitment to terminal differentiation) is examined by quantitative reverse transcription PCR (RT-PCR). Synthesis of mRNA for Cyclin D (a marker for cell proliferation) is also assayed by RT-PCR. […] The RNA is blotted onto a nylon membrane by capillary transfer and expression of K1 mRNA is determined by Northern hybridisation with a radiolabelled DNA probe. […]

[2] = system: normal human epidermal keratinocytes; experiment: proliferation assay on normal human epidermal keratinocytes; type: cell-based
Protocol: Pieces of skin are washed thoroughly for 30 minutes in Betadine solution (10% iodine) followed by 2×10 minute washes in PBS. After removal of the subcutaneous tissue and dermis with a scalpel the skin is dissected into 5×10 mm pieces. The skin pieces are rinsed 5× in PBS followed by incubating in Dispase (grade 11, 2.4 U/ml, Boehringer Mannheim) for 18 hours at4° C.
The skin pieces are then placed dermis side down in 100 mm Petri dishes and are irrigated with 5 ml KSFM. The epidermis is peeled off with forceps and incubated in 10 ml 1× Trypsin/EDTA solution for 10 minutes at 37° C. followed by addition of 10 ml KSFM. The sample is mechanically agitated by aspiration and ejection from a transfer pipette. The resulting cell suspension is sieved using a cell strainer (Becton Dickinson) rinsing through with KSFM. The isolated epidermal cells are then washed twice in KSFM by centrifugation at 100 g for 10 min. Cells are seeded as below.
as §1, §2
Cell Seeding and Analysis: Purchased secondary cultures or primary cultures (from donor skin) are seeded at 3500 cells/cm^2 in K-SFM 25 cm^2 tissue culture flasks. The medium is changed (5 ml per flask) the day after seeding and every other day thereafter. […]
The medium is replaced every other day. […] The cell suspension is added to 20 ml Isoton solution in a Coulter counter “Accuvette” and the cells are counted. On each harvest, 3 wells of cells are counted for each treatment and 3 counts were made for each well.
Cell number is calculated as follows: Coulter Counter removes 500 μl of 20 ml sample ( 1/40). […]

[3] = Carbenoxolone 6 μM, Disulfiram 15 μM or Citral 10 μM

Compound | differentiation (expression of K1 and K10 markers) ([1]; peptide 6 μM, RBP 0.6 μM, Ca 1.2 mM, FIG. 6) | proliferation ([2]; peptide 6 μM, RBP 0.6 μM, Ca 1.2 mM) | differentiation [1] | proliferation [2, 3]
GRVRLLNNWDVCA | enhances the expression of K1 and K10 markers | reduces proliferation | – | –
CC1(C)[C@@H](OC(=O)CCC(=O)O)CC[C@]2(C)[C@H]3C(=O)C=C4[C@@H]5C[C@@](C)(C(=O)O)CC[C@]5(C)CC[C@@]4(C)[C@]3(C)CC[C@@H]12 [Carbenoxolone] | – | – | increase differentiation | inhibit proliferation
CC(C)=CCCC(C)=CC=O [Citral, 3,7-dimethyl-2,6-octadienal] | – | – | increase differentiation | inhibit proliferation
